According to paper PMC11571207, “Stereorandomized Oncocins with Preserved Ribosome Binding and Antibacterial Activity” (Journal of Medicinal Chemistry, 2024):
≈ marks a conversion by molar mass, not a printed value. Where two headings read alike, the source gives them in different places. Non-standard residues stand in square brackets, D forms with d. Residues, ends and D or L forms follow the SMILES beside them. Nleu = CC(C)CNCC(=O)O; Nlys = NCCCCNCC(=O)O

Legend:
P. aeruginosa PAO1 = assay: microbe, parasite or virus in culture; settings: for MIC P. aeruginosa PAO1: supplement CSV
Outline: (§1)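 Read-out was visible growth after MTT addition, the MIC being the lowest inhibitory peptide concentration. Bacteria grown to log phase in LB were exposed in MH medium to peptide from 64 μg/mL in twofold dilutions for 15-18h at 37°C.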

K. pneumoniae NCTC 418 = assay: microbe, parasite or virus in culture
Outline: as §1

S. aureus COL (MRSA) = assay: microbe, parasite or virus in culture; settings: for MIC S. aureus COL (MRSA): supplement CSV
Outline: as §1

E. coli W3110 = assay: microbe, parasite or virus in culture; settings: for MIC E. coli W3110: supplement CSV
Outline: as §1

A. baumannii ATCC19606 = assay: microbe, parasite or virus in culture; settings: for MIC A. baumannii ATCC19606: supplement CSV
Outline: as §1

[1] = test system: P. aeruginosa PA14 4.13 (phoQ); settings: for MIC P. aeruginosa PA14 4.13: supplement CSV
human red blood cells [2] = assay: Hemolysis assay, minimum hemolytic concentration
P. aeruginosa ZEM9A = assay: microbe, parasite or virus in culture; settings: for MIC P. aeruginosa ZEM9A: supplement CSV
Description: (§2) Minimum inhibitory concentration assay
(§3) Antimicrobial activity was assayed against P. aeruginosa PAO1, K. pneumoniae NCTC418, E. coli W3110, A. baumannii ATCC 19606, methicillin-resistant S. aureus COL (MRSA), and for selected peptides on P. aeruginosa PA14 and the polymyxin-B-resistant derivative PA14 2P4, as well as the clinical isolates ZEM-1A and ZEM9A, K. pneumoniae OXA-48, S. aureus Newman, Enterobacter cloacae and Burkholderia cenocepacia. The minimal inhibitory concentration (MIC) was determined by using broth microdilution method. A colo ny of bacteria was picked and grown in Luria-Bertani (LB) medium overnight at 37°C. For E. coli BW25113 sbmA::kan the medium was supplemented with 25 mg/L of kanamycin. The next day, the culture was then regrown in LB medium to log phase (OD600 = 0.6 to 0.8), which lasted approximately 4 h, and diluted to an OD600 of 0.022 in the desired medium. Stock solutions of 1 mg/mL of the samples were prepared in sterilized milliQ water and diluted to the beginning concentration of 64 μg/mL in 300 μL Mueller Hinton (MH)-medium. The diluted samples were added to first well of 96-well microtiter plate (TPP, untreated, Faust Laborbedarf, AG, Schaffhausen) and diluted serially by ½. Finally, 4 μL of the bacterial suspension was inoculated into the sample solutions (150 μL/well) with a final inoculation of about 5∙10^5 CFU/mL. The plates were then incubated at 37°C for 15-18h. For each assay, sterility (broth only) and growth control (broth with bacterial inoculum, without antibiotics) were checked with two columns in the plate. The next day, 15 μL of 3-(4,5-dimethylthiazol-2-yl)-2,5-diphenyltetrazolium bromide (MTT) was added to each well of the plate, such a way that MIC was defined as the lowest concentration of the peptide that inhibited visible growth of the tested

P. aeruginosa PA14 = assay: microbe, parasite or virus in culture; settings: for MIC P. aeruginosa PA14: supplement CSV
Description: as §2, §3

K. pneumoniae OXA-48 = assay: microbe, parasite or virus in culture; settings: for MIC K. pneumoniae OXA-48: supplement CSV
Description: as §2, §3

P. aeruginosa ZEM-1A = assay: microbe, parasite or virus in culture
Description: as §2, §3

E. cloacae = assay: microbe, parasite or virus in culture; settings: for MIC E. cloacae: supplement CSV
Description: as §2, §3

[3] = test system: P. aeruginosa PA14 2P4 (pmrB); assay: microbe, parasite or virus in culture; settings: for MIC P. aeruginosa PA14 2P4: supplement CSV
Description: as §2, §3

[4] = test system: P. aeruginosa PA14 4.18 (pmrB); settings: for MIC P. aeruginosa PA14 4.18: supplement CSV
human red blood cells [5] = settings: red cells of human, 6 h
[6] = supplement CSV, 12.5% MH pH 7.4
[7] = polymyxin B resistant strain, 12.5% MHB pH 7.4, 16–20 h at 37 °C
[8] = polymyxin B resistant strain, full MHB pH 7.4, 16–20 h at 37 °C

CC[C@@H](C)[C@@H](NC(=O)[C@@H](CCCNC(=N)N)NC(=O)[C@H](CCCNC(=N)N)NC(=O)[C@@H]1CCCN1C(=O)[C@@H]1CCCN1C(=O)[C@H](CCCNC(=N)N)NC(=O)[C@@H]1CCCN1C(=O)[C@H](CCCNC(=N)N)NC(=O)[C@@H]1CCCN1C(=O)[C@H](CC(C)C)NC(=O)[C@H](Cc1ccc(O)cc1)NC(=O)[C@@H]1CCCN1C(=O)[C@@H]1CCCN1C(=O)[C@H](CCCCN)NC(=O)[C@H](CC(=O)O)NC(=O)[C@@H](N)C(C)C)C(=O)N[C@H](Cc1ccc(O)cc1)C(=O)N[C@H](CC(N)=O)C(=O)N[C@H](CCCNC(=N)N)C(N)=O [D5Cterm-Onc] (H-VDKPPYLPRPRPPR[dR][dI][dY][dN][dR]-NH2)
MIC P. aeruginosa, 12.5% MHB (P. aeruginosa PAO1; P. aeruginosa PAO1, 12.5% Müller–Hinton medium, 16–20 h at 37 °C): 8 µg/mL (≈ 3.35 µM)
MIC P. aeruginosa, Full MHB (P. aeruginosa PAO1; P. aeruginosa PAO1, full Müller–Hinton medium, 16–20 h at 37 °C): 64 µg/mL (≈ 26.8 µM)
MIC P. aeruginosa PAO1 (P. aeruginosa PAO1; 12.5% MH pH 7.4): 8 µg/mL (≈ 3.35 µM)
MIC P. aeruginosa PAO1 (P. aeruginosa PAO1; full MH pH 7.4): 64 µg/mL (≈ 26.8 µM)
MIC K. pneumoniae, 12.5% MHB (K. pneumoniae NCTC 418; K. pneumoniae NCTC 418, 12.5% Müller–Hinton medium, 16–20 h at 37 °C): 2 µg/mL (≈ 0.837 µM)
MIC K. pneumoniae, Full MHB (K. pneumoniae NCTC 418; K. pneumoniae NCTC 418, full Müller–Hinton medium, 16–20 h at 37 °C): 4 µg/mL (≈ 1.67 µM)
MIC K. pneumoniae NCTC418 (K. pneumoniae NCTC 418; [6]): 2 µg/mL (≈ 0.837 µM)
MIC K. pneumoniae NCTC418 (K. pneumoniae NCTC 418; supplement CSV, full MH pH 7.4): 4 µg/mL (≈ 1.67 µM)
MIC S. aureus, 12.5% MHB (S. aureus COL (MRSA); S. aureus COL (MRSA), 12.5% Müller–Hinton medium, 16–20 h at 37 °C): 32 µg/mL (≈ 13.4 µM)
MIC S. aureus, Full MHB (S. aureus COL (MRSA); S. aureus COL (MRSA), full Müller–Hinton medium, 16–20 h at 37 °C): > 64 µg/mL
MIC S. aureus COL (MRSA) (S. aureus COL (MRSA); 12.5% MH pH 7.4): 32 µg/mL (≈ 13.4 µM)
MIC S. aureus COL (MRSA) (S. aureus COL (MRSA); full MH pH 7.4): >64 µg/mL
MIC E. coli, 12.5% MHB (E. coli W3110; E. coli W3110, 12.5% Müller–Hinton medium, 16–20 h at 37 °C, broth microdilution): 2 µg/mL (≈ 0.837 µM)
MIC E. coli, Full MHB (E. coli W3110; E. coli W3110, full Müller–Hinton medium, 16–20 h at 37 °C, broth microdilution): 4 µg/mL (≈ 1.67 µM)
MIC E. coli W3110 (E. coli W3110; 12.5% MH pH 7.4): 2 µg/mL (≈ 0.837 µM)
MIC E. coli W3110 (E. coli W3110; full MH pH 7.4): 4 µg/mL (≈ 1.67 µM)
MIC A. baumannii, 12.5% MHB (A. baumannii ATCC19606; A. baumannii ATCC19606, 12.5% Müller–Hinton medium, 16–20 h at 37 °C): 8 µg/mL (≈ 3.35 µM)
MIC A. baumannii, Full MHB (A. baumannii ATCC19606; A. baumannii ATCC19606, full Müller–Hinton medium, 16–20 h at 37 °C): 64 µg/mL (≈ 26.8 µM)
MIC A. baumannii ATCC19606 (A. baumannii ATCC19606; 12.5% MH pH 7.4): 8 µg/mL (≈ 3.35 µM)
MIC A. baumannii ATCC19606 (A. baumannii ATCC19606; full MH pH 7.4): 64 µg/mL (≈ 26.8 µM)
MIC P. aeruginosa PA14 4.13 (phoQ), 12.5% MHB [1, 7]: 8 µg/mL (≈ 3.35 µM)
MIC P. aeruginosa PA14 4.13 (phoQ), full MHB [1, 8]: 64 µg/mL (≈ 26.8 µM)
MIC P. aeruginosa PA14 4.13 ([1]; 12.5% MH pH 7.4): 8 µg/mL (≈ 3.35 µM)
MIC P. aeruginosa PA14 4.13 ([1]; full MH pH 7.4): 64 µg/mL (≈ 26.8 µM)
Haemolysis on hRBC, MHC (human red blood cells [2]; 2.5% human red blood cells (final) in 10 mM phosphate, 150 mM NaCl, pH 7.4, 25 °C, 4 h, visual inspection): >1000 µg/mL
MHC human red blood cells (human red blood cells [2]; supplement CSV): >1000 µg/mL
MIC P. aeruginosa ZEM9A, 12.5% MHB (P. aeruginosa ZEM9A; clinical isolate, 12.5% MHB pH 7.4, 16–20 h at 37 °C): 2 µg/mL (≈ 0.837 µM)
MIC P. aeruginosa ZEM9A, full MHB (P. aeruginosa ZEM9A; clinical isolate, full MHB pH 7.4, 16–20 h at 37 °C): > 64 µg/mL
MIC P. aeruginosa ZEM9A (P. aeruginosa ZEM9A; 12.5% MH pH 7.4): 2 µg/mL (≈ 0.837 µM)
MIC P. aeruginosa ZEM9A (P. aeruginosa ZEM9A; full MH pH 7.4): >64 µg/mL
MIC P. aeruginosa PA14, 12.5% MHB (P. aeruginosa PA14; 12.5% MHB pH 7.4, 16–20 h at 37 °C, two different duplicate MIC determinations): 8 µg/mL (≈ 3.35 µM)
MIC P. aeruginosa PA14, full MHB (P. aeruginosa PA14; full MHB pH 7.4, 16–20 h at 37 °C, two different duplicate MIC determinations): > 64 µg/mL
MIC P. aeruginosa PA14 (P. aeruginosa PA14; 12.5% MH pH 7.4): 8 µg/mL (≈ 3.35 µM)
MIC P. aeruginosa PA14 (P. aeruginosa PA14; full MH pH 7.4): >64 µg/mL
MIC K. pneumoniae OXA-48, 12.5% MHB (K. pneumoniae OXA-48; carbapenem-resistant, 12.5% MHB pH 7.4, 16–20 h at 37 °C): 4 µg/mL (≈ 1.67 µM)
MIC K. pneumoniae OXA-48, full MHB (K. pneumoniae OXA-48; carbapenem-resistant, full MHB pH 7.4, 16–20 h at 37 °C): 32 µg/mL (≈ 13.4 µM)
MIC K. pneumoniae OXA-48 (K. pneumoniae OXA-48; 12.5% MH pH 7.4): 4 µg/mL (≈ 1.67 µM)
MIC K. pneumoniae OXA-48 (K. pneumoniae OXA-48; full MH pH 7.4): 32 µg/mL (≈ 13.4 µM)
MIC P. aeruginosa ZEM-1A, 12.5% MHB (P. aeruginosa ZEM-1A; clinical isolate, 12.5% MHB pH 7.4, 16–20 h at 37 °C, cells marked c: single measurement (in duplicates)): 4 to 8 µg/mL
MIC P. aeruginosa ZEM-1A (P. aeruginosa ZEM-1A; [6]): 4 to 8 µg/mL
MIC E. cloacae, 12.5% MHB (E. cloacae; 12.5% MHB pH 7.4, 16–20 h at 37 °C): 1 µg/mL (≈ 0.418 µM)
MIC E. cloacae, full MHB (E. cloacae; full MHB pH 7.4, 16–20 h at 37 °C): 32 µg/mL (≈ 13.4 µM)
MIC E. cloacae (E. cloacae; 12.5% MH pH 7.4): 1 µg/mL (≈ 0.418 µM)
MIC E. cloacae (E. cloacae; full MH pH 7.4): 32 µg/mL (≈ 13.4 µM)
MIC P. aeruginosa PA14 2P4 (pmrB), 12.5% MHB [3, 7]: 2 µg/mL (≈ 0.837 µM)
MIC P. aeruginosa PA14 2P4 (pmrB), full MHB [3, 8]: > 64 µg/mL
MIC P. aeruginosa PA14 2P4 ([3]; 12.5% MH pH 7.4): 2 µg/mL (≈ 0.837 µM)
MIC P. aeruginosa PA14 2P4 ([3]; full MH pH 7.4): >64 µg/mL
MIC P. aeruginosa PA14 4.18 (pmrB), 12.5% MHB [4, 7]: 8 µg/mL (≈ 3.35 µM)
MIC P. aeruginosa PA14 4.18 (pmrB), full MHB [4, 8]: 64 µg/mL (≈ 26.8 µM)
MIC P. aeruginosa PA14 4.18 ([4]; 12.5% MH pH 7.4): 8 µg/mL (≈ 3.35 µM)
MIC P. aeruginosa PA14 4.18 ([4]; full MH pH 7.4): 64 µg/mL (≈ 26.8 µM)

CC(C)C[C@H](NC(=O)CN(CC(C)C)C(=O)[C@H](CC(C)C)NC(=O)CN(CCCCN)C(=O)[C@H](CC(C)C)NC(=O)CN(CC(C)C)C(=O)[C@H](CCCCN)NC(=O)CN(CC(C)C)C(=O)[C@H](CC(C)C)NC(=O)CN(CCCCN)C(=O)[C@@H](N)CCCCN)C(N)=O [EB9, reference compound] (H-K[Nlys]L[Nleu]K[Nleu]L[Nlys]L[Nleu]L-NH2; N-terminus assumed)
MIC P. aeruginosa, 12.5% MHB (P. aeruginosa PAO1; PAO1): 4 µg/mL (≈ 3.03 µM)
MIC P. aeruginosa, Full MHB (P. aeruginosa PAO1; PAO1): 32 µg/mL (≈ 24.2 µM)
MIC K. pneumoniae, 12.5% MHB (K. pneumoniae NCTC 418; NCTC 418): >32 / >32 μg/mL
MIC K. pneumoniae, Full MHB (K. pneumoniae NCTC 418; NCTC 418): >32 / >32 μg/mL
MIC K. pneumoniae NCTC418 (K. pneumoniae NCTC 418; NCTC 418, 4 h, pH 7.4): >32 µg/mL
MIC S. aureus, 12.5% MHB (S. aureus COL (MRSA); COL): >32 / 32 μg/mL
MIC S. aureus, Full MHB (S. aureus COL (MRSA); COL): >32 / 32 μg/mL
MIC A. baumannii, 12.5% MHB (A. baumannii ATCC19606; ATCC19606): 16 µg/mL (≈ 12.1 µM)
MIC A. baumannii, Full MHB (A. baumannii ATCC19606; ATCC19606): > 32 µg/mL
MHC human red blood cells (human red blood cells [5]): >2000 µg/mL
